Counter-ions that a name gives are not always drawn.
Experiments:
[1] = system: nitroglycerin-induced migraine mouse model; experiment: nitroglycerin-induced migraine mouse model (hot plate, head scratching, body weight); type: in vivo, ICR mice
Procedure: 48 ICR mice weigt 18-22 g, half male and half female; purchased from Qinglongshan Animal Breeding Farm, Jiangning District, Nanjing City, certificate: SCXK (Su) 2017-0001; rearing conditions: room temperature 18-20° C., same sex rearing in separate cages, 12 hours of light, regular ventilation, conventional full-price solid feed feeding, bedding changed every two days; 48 mice were randomly divided into 6 groups (blank control group, model group, positive drug group, low-dose group of test drug, medium-dose group of test drug, high-dose group of test drug), 8 animals (4♀4) in each group, marked No. 1-8 with picric acid respectively.
Solvent: 0.5% CMC-Na aqueous solution; positive drug: flunarizine hydrochloride (sibelin) capsules (specification 5 mg), take the contents in a mortar, add 100 ml of 0.5% CMC-Na solution while grinding, placed in EP tubes for standby; Test drug (compound 5): dissolve into 5, 10, 20 mg/ml solutions with distilled water respectively, and placed in EP tubes for standby; Modeling drug (nitroglycerin): take 2 nitroglycerin tablets (specification 5 mg), crushed into powder, placed in EP tubes, added 500 μl of propylene glycol with a pipette and shaken well, standing still for 5 minutes, added 9.5 ml of normal saline, shaken well and standing still overnight, take the supernatant (containing nitroglycerin) 1 mg/ml) for use.
Except for the first group (blank control group), animals in other groups were subcutaneously injected with 10 mg/kg (0.2 ml/20 g) of nitroglycerin back-up solution 1 h after each administration (modeling once every other day on the 1st, 3rd, and 5th days).
The first group was the blank control group, which was given 0.5% CMC-Na 0.2 ml/20 g by gavage; the second group was the model group, which was given 0.5% CMC-Na by gavage; the third group was the positive drug group, which was given by gavage Flunarizine hydrochloride (sibilin) 1 mg/kg; the fourth group was the low-dose group of test drug, which was given 100 mg/kg of compound 5 by gavage; the fifth group was the medium-dose group of test drug, which was given 200 mg/kg of compound 5 by gavage; the sixth group was the high-dose group of test drug, which was given 400 mg/kg of compound 5 by gavage. Dosing every other day on days 1, 3, and 5.
In behavioral studies, mice scratching their heads for more than 5 times or scratching their faces with forelimbs for more than 5 times were identified as migraine-related behaviors caused by modeling, with a record of scratching their heads once; in the hot plate method, mice lifted their hind limbs and licked their hind feet as the observation indicator, record the time immediately.

[2] = system: hot plate pain threshold in mice; experiment: hot plate method, compound 1, intragastric administration; type: in vivo
Procedure: All the mice participating in the experiment were subjected to hot plate pain threshold detection before the experiment, and qualified mice with pain threshold of 10-40 s were screened.
Accurately weigh an appropriate amount of compound 1, dissolve it in distilled water and prepare a mother liquor of 100 mg/ml, then dilute to 1.25 mg/ml (25 mg/kg), 2.5 mg/ml (50 mg/kg) with double distilled water respectively; accurately weigh an appropriate amount of the positive control drug gabapentin, dissolve in distilled water and prepare a 100 mg/ml mother solution, and then dilute to 10 mg/ml (200 mg/kg) with double distilled water. All medicines are prepared and utilized as needed.
40 only qualified mice were divided into 4 groups, half male and half female in each group. The first group is the blank group, no administration; the second group is the positive control (gabapentin) 25 mg/kg group; the third group is the test drug 25 mg/kg group; the fourth group is the test drug 50 mg/kg group 4. All were administered by gavage.
The mice were placed in a hot plate apparatus at a temperature of 55±0.5° C., and the pain thresholds of the mice were measured and recorded before administration and 60 min after administration.

righting reflex in mice = experiment: mouse righting reflex test (sedative and hypnotic effects); type: in vivo, Kunming mice; conditions: intraperitoneal, Pro 25 mg/kg, n = 7
Procedure: Experimental animals, SPF Kunming mice, male, 20-30 g, Laboratory Animal Center of Lanzhou University (certificate number: SCXK (Gan) 2018-0002), reared in separate cages, temperature, 22±1° C., humidity, 50%, automatic in the light-controlled 12 h/12 h light-dark cycle (light-on time 8:00 h, light-off time 20:00 h, light intensity ≈100 lux) environment, free food and activities, adapted to the experimental environment for 5 days.
(§1) Statistical analysis, the experimental data were analyzed by SPSS 19.0 statistical software, and all data were expressed as Means±SEM.

[3] = system: reserpine depression model mice; experiment: forced swimming test in mice (reserpine depression model); type: in vivo, Kunming mice; conditions: after Res 6 mg/kg i.p., CLI 50, Pro 25, A1P1 24 and 25, compound 5 56 mg/kg i.p.; for Forced swimming immobility time: 5 min test, Means±SEM, Res + DMSO 169.82 ± 11.22, DMSO 106.72 ± 16.49
Procedure: Experimental Drug, Animal, Grouping and Administration are Same as Sugar Water Preference Experiment Method.
Preparation of depression animal models, acute intraperitoneal injection of 6 mg/kg Res can cause a continuous decrease in monoamine neurotransmitters in the brain for 1 week, and depression-like behaviors last for 72 hours, it is often utilized for the preparation of depression models (Huang et al., 2004).
Forced swimming experiment process, the forced swimming experiment is an experiment in which animals are placed in an unavoidable stressful environment to detect the despair state of animal behavior (Porsolt et al., 1978). Male Kunming mice were selected and randomly divided into groups. Conduct in a quiet and enclosed behavioral observation room, with red lights for indoor lighting (25 lux). The experiment is divided into two stages, the first stage: adaptation experiment, 1 day before the test, 9:00-12:00 h, put the animals into the forced swimming test equipment (plexiglass drum: diameter 20 cm, height 25 cm, water depth 12 cm, water temperature 21-25° C., the upper side CCD camera is connected to the computer to record) after 15 minutes of adaptation, take it out, dry the hair with a towel and put it back into the cage. The second stage: testing experiment, animals in each group were put into the forced swimming bucket for 5 minutes at the same time period, and the behavioral activities during the testing period were tracked and recorded by digital cameras and then analyzed. Immobility time: The animal floats on the water surface, with no movement of the limbs or slight movement of the hind limbs to keep the head above the water surface. Evaluate depression like behavior by detecting the despair state of animals based on their immobility time.
as §1

reserpine-treated mice = experiment: mouse sugar water preference test (reserpine depression model); type: in vivo, Kunming mice; conditions: after Res 6 mg/kg i.p., CLI 50, Pro 25, A1P1 24 and 25, compound 5 56 mg/kg i.p.; for Sugar water preference (sugar water drinking amount/total drinking amount): Means±SEM, Res + DMSO 0.642 ± 0.036, DMSO 0.901 ± 0.026
Procedure: Experimental drug, clomipramine (CLI), sigma company, batch number: C7291, 10 mg/ml (10% DMSO); reserpine (Res), sigma company, batch number: 83580, 1 mg/ml (10% DMSO);
SPF adult male Kunming mice, 20-30 g, Laboratory Animal Center of Lanzhou University, animal certificate number: SCXK (Gan) 2018-0002, reared in separate cages, temperature 22±1° C., humidity […], 12 h/12 h light and dark cycle controlled by dynamic light (light-on time 8:000 h, light-off time 20:000 h, light intensity≈100 lux), animals could eat and move freely.
as §1

[4] = system: lipopolysaccharide-induced depression mouse model; experiment: lipopolysaccharide-induced depression mouse model (open field, forced swimming test, body weight); type: in vivo, ICR mice
Procedure: Positive drug: fluoxetine hydrochloride capsule (specification 20 mg), take the content in a mortar, add 40 ml of 0.5% CMC-Na solution while grinding, to a suspended state, set EP tube for use; test drug (compound 5): dissolve into 5, 10, and 20 mg/ml solutions in distilled water, respectively, and put them in EP tubes for later use; modeling drug (LPS): take a frozen lipopolysaccharide PBS solution (1.2 mg: 1.2 ml), and after thawing Use a pipette to take 1 ml into the EP tube, replace with a new pipette tip and pipette 9 ml of normal saline into the EP tube, shake well for use.
Except for the first group (blank control group), other groups of animals were intraperitoneally injected with LPS 2 h before the last administration on the 7th day to the mice in the model group, the positive drug group, and the low, middle and high dose groups of the test drug.
The first group was the blank control group, which was given 0.5% CMC-Na 0.2 ml/20 g by gavage; the second group was the model group, which was given 0.5% CMC-Na by gavage; the third group was the positive drug group, which was given by gavage Flunarizine hydrochloride (sibilin) 1 mg/kg; the fourth group was the low-dose group of the test drug, which was given 100 mg/kg of compound 5 by gavage; the fifth group was the medium-dose group of the test drug, which was given 200 mg/kg by gavage. kg of compound 5; the sixth group was the test drug high-dose group, and 400 mg/kg of compound 5 was administered by gavage. The drug was administered for one week, and the second to sixth groups were intraperitoneally injected with 1 mg/kg (0.2 ml/20 g) of LPS on the seventh day to establish a model.
On the 7th day, before the last administration and modeling, the effect of the drug on the spontaneous activity of the mice should be investigated, and it is excluded that the drug increases the spontaneous activity of the mice and interferes with the immobility time in the forced swimming experiment. The total migration distance of each mouse in the open field (50×50×50 cm) within 5 min was calculated using the open field experimental instrument and related computer software. Before the data collection, each mouse was given 5 min to familiarize with the open field environment, after each mouse was tested, its excrement was removed and the odor was eliminated with an alcohol spray bottle.
Because the air temperature is low, it is appropriate to control the water temperature by adding hot water to the cylinder.
In the spontaneous activity, the behavioral index selects the total migration distance of mice in the open field within 5 minutes,
by tracking the movement trajectory of mice through monitoring devices, and using computer software, the total distance of movement can be directly obtained; in the FST experiment, the mice were placed in a into a transparent cylinder filled with warm water (about 25° C.) for 6 minutes, the mice will experience struggling, swimming and floating behaviors, the time when the mice stop struggling to float on the water surface is identified as a state of despair caused by depression, by using monitoring equipment and computer software to statistically analyze the state of mice after 4 minutes, the total “Immobility time” can be directly obtained.

[5] = compound 5 56 mg/kg, A1P1 24 and 25 mg/kg, Dia 5 mg/kg

SMILES: Fc1ccc(C(c2ccc(F)cc2)N2CCN(C/C=C/c3ccccc3)CC2)cc1 [flunarizine hydrochloride, reference compound]
- weight gain of mice ([1]; reference blank group, compound 5 100, 200, 400 mg/kg, flunarizine hydrochloride 1 mg/kg, gavage, p>0.05): no significant difference
- hind feet licking time (hot plate) ([1]; reference model group, flunarizine hydrochloride 1 mg/kg gavage, 45 min after modeling, day 5, p<0.05): significant difference
- total number of head scratching times ([1]; reference model group, flunarizine hydrochloride 1 mg/kg gavage, day 5): extremely significant (p<0.01)

SMILES: NCC1(CC(=O)O)CCCCC1 [Gabapentin, gabapentin, reference compound]
- Pain response time Before administration ([2]; 25 mg/kg gavage group, baseline, n 10, X ± SD): 16.6 ± 5.2 s
- Pain response time After administration ([2]; 25 mg/kg gavage, 60 min after administration, X ± SD): 33.5 ± 15.0 s
- Pain response time extension rate ([2]; 25 mg/kg gavage, 60 min after administration, blank group 3.9 ± 6.6): 113.4 ± 99.1 %

SMILES: CN1C(=O)CN=C(c2ccccc2)c2cc(Cl)ccc21 [Dia, Diazepam, reference compound]
- Disappearance time (latency of disappearance of the righting reflex) (righting reflex in mice; [5]): did not disappear
- Observation of activity and other phenomena (righting reflex in mice; [5]): significantly reduced

SMILES: CN(C)CCCN1c2ccccc2CCc2ccc(Cl)cc21 [CLI, clomipramine, reference compound]
- change of forced swimming immobility time compared with the Res+DMSO group [3]: significantly shortened
- Forced swimming immobility time [3]: 80.66 ± 23.68 s
- change of preference for sugar water compared with the Res+DMSO group (reserpine-treated mice): significantly increased
- Sugar water preference (sugar water drinking amount/total drinking amount) (reserpine-treated mice): 0.812 ± 0.025

SMILES: CNCCC(Oc1ccc(C(F)(F)F)cc1)c1ccccc1 (stereo not shown) [fluoxetine hydrochloride, reference compound]
- effect on body weight of mice ([4]; compound 5 100, 200, 400 mg/kg and positive drug, gavage for one week): no significant effect
- alleviation of depressive behavior caused by LPS ([4]; compound 5 100, 200, 400 mg/kg and positive drug, gavage for one week, no statistical difference found): certain alleviation effect
- spontaneous activity: total migration distance in open field within 5 minutes ([4]; reference blank group, day 7 before last administration, all dose groups, p>0.05): no significant effect
- FST immobility time ([4]; reference model group, compound 5 100, 200, 400 mg/kg and positive drug, gavage for one week, 4 h after LPS): not significantly different (p>0.05)

SMILES: CC(C)c1cccc(C(C)C)c1O [Pro, Propofol, reference compound]
- change of forced swimming immobility time compared with the Res+DMSO group [3]: slightly shortened
- Forced swimming immobility time [3]: 145.01 ± 21.21 s
- Duration (disappearance to recovery of the righting reflex) (righting reflex in mice): 150.97 s
- Observation of activity and other phenomena (righting reflex in mice; [5]): significantly reduced
- change of preference for sugar water compared with the Res+DMSO group (reserpine-treated mice): rose significantly
- Sugar water preference (sugar water drinking amount/total drinking amount) (reserpine-treated mice): 0.789 ± 0.043
